# Source: patent publication US20130123345A1, “METHOD OF TREATING A VIRAL INFECTION D[…] […] ADENOSINE RECEPTOR PATHWAY” (THE OHIO STATE UNIVERSITY, priority 2010, published 2013)
# Legend:
# [1] = tested on: influenza A/WSN/33; assay: Lung homogenate virus titers; format: in vivo, mouse
# Experimental: (§1) The pharmacologic blockade of CD73 with APCP (5′-(α,β-methylene)diphosphate) reduces BALF adenosine levels and thereby ameliorates acute lung injury in influenza-infected mice. We investigated effects of daily gavage with APCP (20 mg/kg, in 200 μl saline) on body weight, arterial O2 saturation (SpO2; measured in conscious mice with the MouseOx pulse oximetry system) and survival in 2 groups of 10 individually-marked influenza-infected mice, and compared these animals to mock-infected and untreated influenza-infected mice. […] (FIG. 4C). In fact, 20% of APCP-treated mice survived infection, whereas all untreated mice died. Importantly, APCP gavage had no effect on lung homogenate virus titers at 2 d.p.i. (not shown).
# (§2) A1-AdoR activation is pro-inflammatory in influenza infection and pharmacologic blockade of A1-AdoR with the prototypical A1-AdoR antagonist DPCPX (8-Cyclopentyl-1,3-diproopylxanthine) ameliorates adenosine-induced acute lung injury in influenza-infected mice. Influenza-infected mice were treated with DPCPX (1 mg/kg/day), administered by implanted osmotic minipump (Alzet). The effects of this A1-AdoR antagonist on body weight, arterial O2 saturation (measured by pulse oximetry) and survival were investigated in 2 groups of 10 individually-marked influenza-infected mice. For some outcome measures, we also evaluated the effect of daily administration of the A2b-AdoR antagonist enprofylline (4 mg/kg I.P., in 100 μl 10% ethanol in saline; EMD Biosciences), to determine whether A2b-AdoR blockade also modulates influenza outcomes. […] 10% of DPCPX-treated mice survived infection. […] (not shown). […] (not shown).
# [2] = tested on: influenza-infected mice; assay: Mortality / survival of treated influenza-infected mice; format: in vivo, mouse
# Experimental: as §1, §2
# (§3) Mice were infected intranasally with 50 μl influenza A/WSN/33 under 3% isoflurane anesthesia. Mock-infected animals received 50 μl of virus diluent (PBS with 0.1% BSA). In some experiments, mice were individually marked and weighed daily.
# [3] = tested on: influenza-infected mice; assay: Arterial O2 saturation (SpO2) by MouseOx pulse oximetry, peripheral hypoxemia; format: in vivo, mouse
# Experimental: as §1, with “Importantly, APCP gavage had no effect on lung homogenate virus titers at 2 d.p.i. (not shown).” left out
# A1-AdoR activation is pro-inflammatory in influenza infection and pharmacologic blockade of A1-AdoR with the prototypical A1-AdoR antagonist DPCPX (8-Cyclopentyl-1,3-diproopylxanthine) ameliorates adenosine-induced acute lung injury in influenza-infected mice. […] The effects of this A1-AdoR antagonist on body weight, arterial O2 saturation (measured by pulse oximetry) and survival were investigated in 2 groups of 10 individually-marked influenza-infected mice. For some outcome measures, we also evaluated the effect of daily administration of the A2b-AdoR antagonist enprofylline (4 mg/kg I.P., in 100 μl 10% ethanol in saline; EMD Biosciences), to determine whether A2b-AdoR blockade also modulates influenza outcomes. […]
# [4] = tested on: influenza-infected mice; assay: Influenza-induced loss of body weight in treated infected mice; format: in vivo, mouse
# Experimental: as §1, §2, §3
# [5] = tested on: influenza-infected mice; assay: Lung water content (wet:dry weight ratio); format: in vivo, mouse; details: 6 d.p.i.
# Experimental: as §2
# The right lung was removed weighed, dried in an oven at 55° C. for 5 days, then reweighed. Wet-to-dry weight ratio provides an index of intrapulmonary fluid accumulation.
# [6] = tested on: influenza H1N1 virus (A/WSN/33) infected BALB/c mice; assay: Alveolar fluid clearance in influenza-infected mice (compound added to fluid clearance instillate); format: in vivo, mouse; details: 2 d.p.i., 10 μM in fluid clearance instillate, 30-min ventilation period
# [7] = tested on: BALB/c mice infected with influenza A/WSN/33; assay: Heart rate (bradycardia) by pulse oximetry in influenza-infected mice; format: in vivo; details: 6 days infection, 10,000 PFU/mouse; systemic treatment
# [8] = tested on: influenza-infected mice; assay: Total BAL cell counts (pulmonary inflammation); format: in vivo, mouse; details: 6 d.p.i.; 1 mg/kg/day by osmotic minipump
# Experimental: as §2
# Following removal of the left lung, the right lung was lavaged in situ with 0.5 ml of sterile saline. […] Numbers of viable alveolar macrophages, lymphocytes, and polymorphonuclear cells were calculated from total leukocytes (counted using a hemocytometer with 0.4% trypan blue exclusion to assess viability) and differential counts of Diff-Quik-stained cytocentrifuge preparations. […] BAL protein and LDH content were determined by standard colorimetric assays.
# [9] = 1 mg/kg/day by implanted osmotic minipump
molecule,measurement,setting,value
"5′-(α,β-methylene)diphosphate [APCP]",lung homogenate virus titers,"[1]; 2 d.p.i., daily gavage 20 mg/kg",no effect
same,treated mice that survived infection,"[2]; daily gavage 20 mg/kg, all untreated mice died",20%
same,mortality (delay),"[2]; daily gavage 20 mg/kg, vs untreated infected mice",significantly delayed mortality
same,onset of peripheral hypoxemia (SpO2),"[3]; daily gavage 20 mg/kg, conscious mice",significantly delayed
same,influenza-induced loss of body weight,[4]; daily gavage 20 mg/kg in 200 μl saline,no significant effect
CCCn1c(=O)[nH]c(=O)c2[nH]cnc21 [enprofylline],lung homogenate virus titers,"[1]; 6 d.p.i., daily 4 mg/kg I.P.",Neither DPCPX nor enprofylline had any effect
same,lung water content (wet:dry weight ratio),[5]; daily 4 mg/kg I.P.,no such effect
same,influenza-induced weight loss,[4]; daily 4 mg/kg I.P. in 100 μl 10% ethanol in saline,neither DPCPX nor enprofylline had any significant effect
CNCCC(Oc1ccc(C(F)(F)F)cc1)c1ccccc1 (stereo not drawn) [fluoxetine],WSN virus-induced suppression of alveolar fluid clearance,[6],reversed
"CCCn1c(=O)c2[nH]c(C3CCCC3)nc2n(CCC)c1=O [DPCPX, 8-cyclopentyl-1,3-dipropylxanthine]",influenza-induced bradycardia (heart rate),[7],reversed
same,total BAL cell counts,[8],significant reduction
same,lung homogenate virus titers,"[1]; 6 d.p.i., 1 mg/kg/day by osmotic minipump",Neither DPCPX nor enprofylline had any effect
same,lung water content (wet:dry weight ratio),[5]; 1 mg/kg/day by osmotic minipump,significantly reduced
same,mortality (delay),[2]; [9],significantly delayed mortality
same,treated mice that survived infection,[2]; [9],10%
same,onset of peripheral hypoxemia,[3]; [9],significantly delayed
same,influenza-induced weight loss,[4]; [9],neither DPCPX nor enprofylline had any significant effect
"N#CC(=C(N)Sc1ccccc1N)C(C#N)=C(N)Sc1ccccc1N [U0126, 1,4-diamino-2,3-dicyano-1,4-bis[2-aminophenylthio] butadiene]",WSN virus-induced suppression of alveolar fluid clearance,[6],reversed
